The values below come from patent US11187660B2, “Fluorescent probes for monitoring voltage by photo-induced electron transfer” (The Regents of the University of California, priority 2011, dated 2021).

Data set [1] deals with HEK cells. The data set can be described thus: Bleach rate in HEK cells. The format is cell-based, human. Particulars: for bleach rate: HEK cells, 7 W/cm^2. The method, then:
The dibutyl (VFx.4.Cl) dyes stain the cell membranes of HEK293 cells when loaded at a concentration of 2 μM for 15 min at 37° C. in buffer with 0.1% DMSO as cosolvent (FIG. 9A, and FIG. 10). […] The bleach rates of the probes were tested in HEK cells and compared with di-4-ANEPPS. The bleach rates for VF1.4.Cl, VF2.4.Cl, and VF2.1.Cl at 7 W/cm^2 were measured to be 3.9±0.1×10^−2 s^−1, 1.8±0.1×10^−2 s^−1, and 8.0±0.1×10^−3 s^−1, respectively.
For studies to determine excitation sensitivity of dyes, illumination was provided by a Polychrom IV light source (T.I.L.L. Photonics GMBH) with a mechanical shutter (Uniblitz VS25). For all other studies, light was provided by an Xenon arc lamp powered by an Optiquip Power supply (Optiquip) with a mechanical shutter controlled by a Lambda 10-2 controller (Sutter). Light from the Xenon arc lamp was filtered through a 480 nm filter (30 nm bandpass, Chroma), a 510 nm dichroic (Semrock), a 530 nm emission filter (50 nm bandpass, Semrock), and focused through a 40×/1.4 oil objective. For di-4-ANEPPS imaging, a 625 nm emission filter with a 50 nm bandpass was used. Bleaching studies used identical illumination conditions (480/30 nm excitation, 510 nm dichroic, 7 W/cm^2 output) and were corrected by normalizing for the extinction coefficient at the excitation wavelengths (465-495 nm).

The nature of data set [2]: Absorbance and emission spectra in aqueous buffer with Triton X-100. The format is physicochemical. Particulars: 5 mM sodium phosphate, pH 9, 0.1% Triton X-100. As for the experimental part:
FIG. 8A, FIG. 8B, and FIG. 8C show the normalized absorbance and emission spectra for exemplary compounds of the invention in 5 mM sodium phosphate, pH 9 with 0.1% Triton X-100. Black lines are absorbance spectra; grey lines are emission spectra. a) VF1.4.Cl, b) VF2.4.Cl, and c) VF2.1.Cl.
All dyes feature emission and excitation profiles typical of dichlorofluoresceins (VF1.4.Cl: λmax=521 nm, ε=93,000 M^−1·cm^−1, λem=534 nm, Φ=0.24; VF2.4.Cl: λmax=522 nm, ε=97,000 M^−1·cm^−1, λem=536 nm, Φ=0.054; VF2.1.Cl: λmax=522 nm, ε=98 000 M^−1·cm^−1, λcm=535 nm, Φ=0.057, 5 mM sodium phosphate, pH 9, 0.1% Triton X-100) (FIG. 8).
UV absorbance and fluorescence spectra were recorded on a Cary 3E (Varian) and Fluorolog 2 (Spex) fluorimeter, respectively. Analytical, semi-preparative, and preparative HPLCs were performed on Agilent HPLCs, with Luna C18(2) columns (Phenomenex) using water (solvent A) and acetonitrile (solvent B) with 0.05% TFA as an additive. Low resolution ESI mass spectrometry was performed on an Agilent LC/MSD Trap XCT coupled to an Agilent HPLC. High resolution mass spectra were acquired on a ThermoFisher Orbitrap XL hybrid mass spectrometer. ^1H NMR spectra were collected in CDCl3 or d6-DMSO (Cambridge Isotope Laboratories, Cambridge, Mass.) at 25° C. on a 400 Varian Mercury Plus or Jeol ECA 500 spectrometer at the Department of Chemistry and Biochemistry NMR Facility at the University of California, San Diego. All chemical shifts are reported in the standard δ notation of parts per million using the peak of residual proton signals of CDCl3 or d6-DMSO as an internal reference.

For data set [3], the system named is HEK293 cells. The data set can be described thus: Voltage sensitivity of fluorescence in voltage-clamped HEK cells (whole-cell recording). The format is cell-based, human. From the text:
Membrane voltage of cells loaded with VF1.4.Cl or VF2.4.Cl were controlled by making tight-seal whole-cell recordings. Cells were maintained at a holding potential of −60 mV and stepped for 50 ms to various depolarizing and hyperpolarizing potentials (FIG. 5A), while simultaneously acquiring epifluorescence images. For both sensors, depolarizing steps result in fluorescence increases while hyperpolarizing steps decrease fluorescence intensity, in keeping with our proposed mechanism. […] For di-4-ANEPPS, typical values are 0.08-0.12% per mV. The larger changes for VF1.4.Cl and VF2.4.Cl compared to di-4-ANEPPS are somewhat expected, since a PeT-based voltage sensor samples the entire emission spectrum, whereas electrochromic dyes are limited to the edge of the spectrum only. For both probes, the voltage responses are linear across the physiologically relevant ranges of −100 mV to +100 mV. To assess the speed of the optical response to voltage, VF2.4.Cl signals were monitored in response to voltage steps of 100 mV from a holding potential of −60 mV.
We characterized the voltage sensitivity of all three indicators by making tight-seal whole-cell recordings of HEK293 cells stained with the VF sensors. Cells were voltage-clamped at −60 mV holding potential and sequentially stepped to depolarizing and hyperpolarizing potentials at 20-mV increments (FIG. 9B). For all three dyes, depolarizing steps produced fluorescence increases, whereas hyperpolarizing steps produced fluorescence decreases, in keeping with the proposed PeT mechanism. The fluorescence response is linear over the range of −100 mV to +100 mV (FIG. 9C), with voltage sensitivities ΔF/F per 100 mV of 20±1% for VF1.4.Cl and 25±1% for VF2.4.Cl. This statistically significant increase in voltage sensitivity (P<0.05, two-tailed Student t test) is expected upon increasing the length of the molecular wire, and is 2.5- to 4-times more sensitive than di-4-ANEPPS, which, in our hands, gives sensitivities of between 6% and 10% ΔF/F per 100 mV. […] To investigate the speed of response of VF probes, we again made whole-cell recordings of cells stained with VF2.4.Cl, applied 100-mV depolarizing steps from a holding potential of −60 mV, and recorded both the electrophysiological signals and the optical signals.
Electrophysiological recordings of HEK293 cells and cultured neurons were performed with an Axopatch 200A or 200B amplifier (Molecular Devices) at room temperature. The signals were digitized with Digidata 1332A and recorded with pCLAMP 9 software (Molecular Devices) on a PC. Analysis of electrophysiological data was done with AxoGraph X (AxoGraphX), pCLAMP 9, and/or ClampFit (Molecular Devices). For most experiments the extracellular solution consisted of (in mM) 145 NaCl, 20 glucose, 10 HEPES, 3 KCl, 2 CaCl2, 1 MgCl2 (pH 7.35, 310 mOsm). The intracellular solution contained (in mM) 115 potassium gluconate, 10 BAPTA tetrapotassium salt, 10 HEPES, 5 NaCl, 10 KCl, 2 ATP disodium salt, 0.3 GTP trisodium salt (pH 7.25, 290 mOsm).
For studies to determine excitation sensitivity of dyes, illumination was provided by a Polychrom IV light source (T.I.L.L. Photonics GMBH) with a mechanical shutter (Uniblitz VS25). For all other studies, light was provided by an Xenon arc lamp powered by an Optiquip Power supply (Optiquip) with a mechanical shutter controlled by a Lambda 10-2 controller (Sutter). […]

Data set [4] has as its system HEK cells. Conditions: literature (32); cited from earlier work.
The subject of data set [5] is HEK cells. The data set can be described thus: Excitation wavelength dependence of voltage response in HEK cells. The format is cell-based, human. Conditions: 100 mV depolarizing steps, excitation 445 to 500 nm in 5 nm increments for VF2.4.Cl. An excerpt:
The ΔF/F for VF2.4.Cl is relatively insensitive to the excitation wavelength. As opposed to di-4-ANEPPS and other electrochromic dyes (ref the biochemistry paper and the ANINNE6 2004 Denk paper), which are highly sensitive to excitation wavelength, PeT-based sensors yield fluorescent responses which are invariant across their excitation spectra. To establish the invariant nature of the fluorescence response, HEK cells were loaded, as before, with VF2.4.Cl and subjected to depolarizing steps of 100 mV, each time varying the excitation wavelength. […] In contrast, di-4-ANEPPS varies by nearly 100%. Excitation at the red edge of the spectrum gives a maximal response whereas excitation at the blue edge gives a response that is some 10- to 20-fold less than the maximal response.
The fluorescence response of VF2.4.Cl to voltage changes is insensitive to the excitation wavelength, as is true for PeT-based probes, such as fluo-3 and Calcium Green-1. We assayed the wavelength dependence of VF2.4.Cl by changing the excitation wavelength in 5-nm steps and determined that the fluorescence response of VF2.4.Cl to a 100-mV depolarization from a holding potential of −60 mV varied only about 15% when testing wavelengths from 445 to 500 nm (FIG. 11C). […]

Data set [6] deals with HEK293 cells. Conditions: typical values for di-4-ANEPPS; cited from earlier work.
In data set [7] the test system is cultured hippocampal neurons. Conditions: cultured hippocampal neurons (25); cited from earlier work.

On to `CCCCN(CCCC)c1ccc(/C=C/c2ccc(-c3c4cc(Cl)c(=O)cc-4oc4cc(O)c(Cl)cc34)c(S(=O)(=O)O)c2)cc1` [VF1.4.Cl, (E)-5-(4-(dibutylamino)styryl)-2-(2,7-dichloro-6-hydroxy-3-oxo-3H-xanthen-9-yl)benzenesulfonic acid], for which, in the data set with HEK cells [1], the bleach rate is 3.9±0.1×10^−2 s^−1. Moreover, the “bleach rate, fold smaller than di-4-ANEPPS” value in the data set with HEK cells [1] (identical illumination conditions) is “two-”. In data set [2], the Φ was found to be 0.24, the ε was 93,000 M^−1·cm^−1, the λem came to 534 nm and the λmax was 521 nm. Besides, in the data set with HEK293 cells [3] (HEK293 cells voltage-clamped at −60 mV holding potential), the “voltage sensitivity ΔF/F per 100 mV” value came to 20±1%. Also, the “sensitivity, fractional fluorescence change (ΔF/F) versus change in membrane potential” value in the data set with HEK293 cells [3] (HEK cells, holding potential −60 mV) is reported as 0.20±0.01 % per mV.
In the case of `CCCCN(CCCC)c1ccc2cc(/C=C/c3cc[n+](CCCS(=O)(=O)[O-])cc3)ccc2c1` [di-4-ANEPPS], the bleach rate in the data set on HEK cells [1] is 6.9±0.1×10^−2 s^−1. In addition, the “variation of response over excitation spectrum” value in the data set with HEK cells [4] is approximately 100%. In addition, in the data set with HEK cells [5], the “variation of fractional fluorescence response across excitation spectrum” value is given as approximately 100%. For the same compound, the “sensitivity ΔF/F, typical values” in the data set with HEK293 cells [6] is recorded as 0.08-0.12 % per mV.
On to `Cc1ccc(N(CC(=O)O)CC(=O)O)c(OCCOc2cc(-c3c4cc(Cl)c(=O)cc-4oc4cc(O)c(Cl)cc34)ccc2N(CC(=O)O)CC(=O)O)c1` [fluo-3], for which the “ΔF/F for action potentials” value in data set [7] is on record as “up to 150%”.
